Read-outs that look alike come from different tables or passages of the source.
Experiments:
ASFV [1] = assay type: cell-based, African Swine Fever Virus (ASFV)
macropinocytosis of PAMs = assay type: cell-based, pigs
PI3K/Akt pathway = assay type: cell-based, pigs
ASFV [2] = assay type: cell-based, African Swine Fever Virus (ASFV); remark: listed apart in the source
ASFV [3] = test: microbe, parasite or virus in culture; assay type: cell-based; details: African swine fever virus, read-out: IC50 against ASFV
ASFV [4] = test: microbe, parasite or virus in culture; assay type: cell-based; details: African swine fever virus, BMDM, read-out: IC50 against ASFV
ASFV [5] = test: microbe, parasite or virus in culture; assay type: cell-based; details: African swine fever virus, MA104, read-out: IC50 against ASFV
ASFV [6] = assay type: cell-based, African Swine Fever Virus (ASFV); remark: listed apart in the source
ASFV [7] = assay type: cell-based, African Swine Fever Virus (ASFV); remark: listed apart in the source
ASFV [8] = assay type: cell-based, African Swine Fever Virus (ASFV); remark: listed apart in the source
ASFV [9] = assay type: cell-based, African Swine Fever Virus (ASFV); remark: listed apart in the source
[10] = test system: clathrin-mediated endocytosis of PAMs; assay type: cell-based, pigs
LSDV = assay type: cell-based, Lumpy Skin Disease Virus (LSDV)
PEDV = assay type: cell-based, Porcine Epidemic Diarrhea Virus (PEDV)

O=c1cc(N2CCOCC2)oc2c(-c3ccccc3)cccc12 [LY294002]
expression of ASFV p72 (Western Blot, Fig. 7(B)) (ASFV [1]): not detected | uptake of dextran-Alexa647 by PAMs (macropinocytosis of PAMs): no uptake of dextran-Alexa647 | phosphorylation of Akt (Western Blot, Fig. 7(B)) (PI3K/Akt pathway): completely inhibited | levels of CP204L and B646L (ASFV [2]): significantly suppressed

COc1ccc2cc1Oc1ccc(cc1)C[C@H]1c3cc(c(OC)cc3CCN1C)Oc1c(OC)c(OC)cc3c1[C@H](C2)N(C)CC3 [TET, Tetrandrine]
IC50 (ASFV [3]): 450 nM | IC50 (ASFV [4]): 1150 nM | IC50 (ASFV [5]): 870 nM | ASFV-infected (fluorescent) PAMs by IFA (ASFV [6]): hardly any fluorescent PAMs were observed | expression level of ASFV p72 (Western Blot) (ASFV [1]): dose-dependent inhibition | expression of ASFV p72 (Western Blot, Fig. 7(B)) (ASFV [1]): not detected | inhibition rate of TET on ASFV compared to the LY294002 control group (ASFV [1]): ~0% | level of ASFV-p72 protein (Western Blot) (ASFV [1]): significantly reduced | ASFV p72 expression level by Western Blot, single-stage treatment (ASFV [7]): significant reduction in ASFV p72 expression level was observed only during the internalization stage | ASFV infection after co-incubation of TET and ASFV (virucidal effect) (ASFV [8]): did not significantly reduce ASFV infection | ASFV infection level (ASFV [9]): less than 0.5% | transferrin-Alexa594 internalization, treated versus untreated group [10]: no significant difference | Dext (dextran-Alexa647) fluorescence signal, treated versus untreated group (macropinocytosis of PAMs): completely disappeared | uptake of dextran-Alexa647 by PAMs (macropinocytosis of PAMs): no uptake of dextran-Alexa647 | phosphorylation of Akt (Western Blot, Fig. 7(B)) (PI3K/Akt pathway): partially inhibited | phosphorylation of Akt activated by ASFV internalization (PI3K/Akt pathway): inhibited the phosphorylation of Akt | levels of CP204L and B646L (ASFV [2]): significantly suppressed | inhibitory effect on LSDV (LSDV 117 protein, Western Blot) (LSDV): dose-dependent inhibitory effect | inhibitory effect on PEDV (PEDV N protein, Western Blot) (PEDV): dose-dependent inhibitory effect | cytotoxicity (Vero cells): no cytotoxicity | cytotoxicity (MDBK cells): no cytotoxicity | cytotoxicity (IPEC-J2 cells): no cytotoxicity

— publication PMC10661491 (Virus Research, 2023)
